Source: patent publication US8569374B2, “NADPH oxidase inhibition pharmacotherapies for obstructive sleep apnea syndrome and its associated morbidities” (The Trustees of the University of Pennsylvania, priority 2004, dated 2013)
“Also recorded” adds a separate entry of the source.

Tests used:
iNOS = iNOS activity in lateral basal forebrain homogenates ([14C] L-arginine to L-citrulline conversion); assay type: in vivo, mice; conditions: for LTIH increase in iNOS activity: apocynin throughout LTIH
Description: FIG. 5. NADPH oxidase inhibition confers resistance to the long-term intermittent hypoxia (LTIH) proinflammatory response. Proinflammatory gene expression was measured in micropunches in the lateral basal forebrains in gp91^phox wild type controls (gp91^phox WT, n=10) and gp91^phox null mice (gp91^phox null, n=10) for A, TNF-a; B, COX-2 and C, iNOS mRNA copies/2 µg total RNA. D. Total NOS activity (left columns), measured as L-arginine conversion of [^14C] L-arginine to L-citrulline and iNOS activity (right columns) was measured using […] S-Ethyl-N-[4-trifluoromethyl)phenyl]isothiourea (ETPI) added to homogenates (12). […] A detailed description of the long-term intermittent hypoxia (LTIH) protocol was recently published. An automated nitrogen/oxygen delivery profile system (Oxycycler model A84XOV; Biospherix, Redfield, N.Y.) produced brief reductions in housing chamber ambient oxygen levels from 21% to 10% for 5 sec every 90 sec, resulting in arterial oxyhemoglobin saturation fluctuations between 95-98% and 83-86%. Sham LTIH, with ambient FIO2 fluctuations from 21% to 19% every 90 sec, held arterial oxyhemoglobin values constant between 96-98%. Both conditions were produced for 10 hr of the lights-on period for a total of 8 wks. Humidity, ambient CO2 and environmental temperature were held constant. To determine if NADPH oxidase inhibition would also prevent LTIH gene responses, a third series of mice examined for gene responses were WT mice treated systemically throughout LTIH or sham LTIH with 3 mg/kg/day apocynin (Sigma-Aldrich) in DMSO, DMSO or PBS delivered subcutaneously (n=10/group) by way of micro-osmotic pump (1002, Durect, Cupertino, Calif.). […] Lateral basal forebrain iNOS activity was compared in mice treated with or without apocynin throughout LTIH (FIG. 5D). Apocynin therapy, relative to saline therapy had no effect on baseline (sham LTIH) iNOS activity. […] Thus, apocynin therapy throughout LTIH prevented the expected increase in iNOS activity.

TNF-α mRNA = test: Taqman real-time PCR of TNF-α gene response to LTIH, lateral basal forebrain; assay type: in vivo, mice
Description: A detailed description of the long-term intermittent hypoxia (LTIH) protocol was recently published. An automated nitrogen/oxygen delivery profile system (Oxycycler model A84XOV; Biospherix, Redfield, N.Y.) produced brief reductions in housing chamber ambient oxygen levels from 21% to 10% for 5 sec every 90 sec, resulting in arterial oxyhemoglobin saturation fluctuations between 95-98% and 83-86%. Sham LTIH, with ambient FIO2 fluctuations from 21% to 19% every 90 sec, held arterial oxyhemoglobin values constant between 96-98%. Both conditions were produced for 10 hr of the lights-on period for a total of 8 wks. Humidity, ambient CO2 and environmental temperature were held constant. To determine if LTIH results in lasting increases in NADPH oxidase and microglial gene responses, real-time Taqman PCR was performed on laser-captured microdissections or macropunches of selected brain regions in mice exposed to sham LTIH or LTIH, two weeks into recovery to parallel sleep studies, using our methods, as previously published (12, 25). Real-time measurement of a NADPH oxidase subunit (p67^phox). To accomplish this, two weeks following conditions of either sham LTIH or LTIH, mice were perfused with PBS; brains were immediately frozen and sectioned (10 μm) for laser-capture microdissections of the following wake-active or hypoxia sensitive regions: frontal cortex (layer V), nucleus basalis […]/substantia inominata/horizontal diagonal band, hippocampus CA1, striatum, lateral hypothalamus, dorsal raphe nucleus, and locus coeruleus, or the following sleep-active adjacent brain regions: median septal diagonal band, medial preoptic area, and ventrolateral preoptic area, collecting 100 captures (40 μm diameter) per region in each mouse (n=6 mice/condition). RNA was purified and cDNA created for primer sets for primer/probe sets in Table 1, for Taqman real time PCR (SDS-7900HT, ABI). […] A second series of mice used for LTIH gene responses were gp91^phox-/- and +/+ mice exposed to either sham LTIH or LTIH for proinflammatory responses. […]

COX-2 mRNA = test: Taqman real-time PCR of COX-2 gene response to LTIH, lateral basal forebrain; assay type: in vivo, mice; conditions: apocynin in DMSO vehicle throughout LTIH
Description: (§1) A detailed description of the long-term intermittent hypoxia (LTIH) protocol was recently published. An automated nitrogen/oxygen delivery profile system (Oxycycler model A84XOV; Biospherix, Redfield, N.Y.) produced brief reductions in housing chamber ambient oxygen levels from 21% to 10% for 5 sec every 90 sec, resulting in arterial oxyhemoglobin saturation fluctuations between 95-98% and 83-86%. Sham LTIH, with ambient FIO2 fluctuations from 21% to 19% every 90 sec, held arterial oxyhemoglobin values constant between 96-98%. Both conditions were produced for 10 hr of the lights-on period for a total of 8 wks. Humidity, ambient CO2 and environmental temperature were held constant. To determine if LTIH results in lasting increases in NADPH oxidase and microglial gene responses, real-time Taqman PCR was performed on laser-captured microdissections or macropunches of selected brain regions in mice exposed to sham LTIH or LTIH, two weeks into recovery to parallel sleep studies, using our methods, as previously published (12, 25). Real-time measurement of a NADPH oxidase subunit (p67^phox). […]

WT mice exposed to LTIH = test: Sleep/wake recordings and murine multiple sleep latency test after long-term intermittent hypoxia (LTIH); assay type: in vivo; conditions: for sleep latency: vs LTIH DMSO vehicle-treated mice
Description: Ten-week old male C57BL/6J (B6) mice, gp91^phox−/− mice (B6.129S6-Cybb^tmldin) backcrossed 12 generations to C57BL/6J 000664 and gp91^phox+/+ (WT) backcrossed substrain C57BL/6J 000664 mice (Jackson Laboratory, Bar Harbor, Me.) were studied. Methods and study protocols were approved in full by the Institutional Animal Care and Use Committee of the University of Pennsylvania, conforming with the revised NIH Office of Laboratory Animal Welfare Policy. Food and water were provided ad libitum. Mice were confirmed pathogen free at the time of studies.
A detailed description of the long-term intermittent hypoxia (LTIH) protocol was recently published. An automated nitrogen/oxygen delivery profile system (Oxycycler model A84XOV; Biospherix, Redfield, N.Y.) produced brief reductions in housing chamber ambient oxygen levels from 21% to 10% for 5 sec every 90 sec, resulting in arterial oxyhemoglobin saturation fluctuations between 95-98% and 83-86%. Sham LTIH, with ambient FIO2 fluctuations from 21% to 19% every 90 sec, held arterial oxyhemoglobin values constant between 96-98%. Both conditions were produced for 10 hr of the lights-on period for a total of 8 wks. Humidity, ambient CO2 and environmental temperature were held constant.
To determine if NADPH oxidase inhibition would also prevent LTIH gene responses, a third series of mice examined for gene responses were WT mice treated systemically throughout LTIH or sham LTIH with 3 mg/kg/day apocynin (Sigma-Aldrich) in DMSO, DMSO or PBS delivered subcutaneously (n=10/group) by way of micro-osmotic pump (1002, Durect, Cupertino, Calif.).
After 8 wks of LTIH or sham LTIH exposures, mice were returned to normoxic conditions for 1 wk. Surgical implantation of electrodes and electrophysiological recordings followed using previously described electrode implantation methods (32). Following 3 d post-operative recovery, mice were connected to recording cables in individual cages, and 4 d later sleep recordings were initiated (beginning 2 wk into recovery from LTIH). Baseline sleep was recorded for 5 days. On recording day 6, a baseline murine multiple sleep latency test (MMSLT) was performed (4 nap opportunities between 2 p.m. and 4 p.m.) to measure baseline sleep propensity (33). On recording day 7, sleep deprivation was performed for 6 hours of the light period (8 a.m. to 2 p.m.), followed by a second MSLT and then recovery sleep was recorded for 12 h. The behavioral state acquisition and analysis program used for these studies was ACQ 3.4 (34), with modifications and behavioral state parameters as previously described (7, 9, 32). Primary variables were total sleep time/24 hr, total NREM sleep time/24 hr and REM sleep time/24 hr, and average sleep latency, before and after short-term sleep loss.
To further investigate the role of NADPH oxidase in the LTIH-induced hypersomnolence and sleepiness, a series of WT mice were implanted with osmotic pumps to systemically deliver either a selective NADPH oxidase inhibitor, apocynin at 3 mg/kg/day, vehicle (dimethylsulfoxide, DMSO) or buffered saline throughout LTIH exposure for 8 wks. Pumps were removed and mice were implanted for sleep recordings as described above for studies in gp91^phox null mice. Apocynin therapy prevented both LTIH reduced wake times and shortened sleep latency.

iNOS mRNA = test: Taqman real-time PCR of iNOS gene response to LTIH, lateral basal forebrain; assay type: in vivo, mice; conditions: apocynin throughout LTIH
Description: as §1

[1] = apocynin 3 mg/kg/day throughout LTIH

## COc1cc(C(C)=O)ccc1O [apocynin, 4-hydroxy-3′-methoxy-acetophenon]
iNOS; LTIH
  reduction in iNOS activity, apocynin treated vs. untreated mice: 60%
iNOS
  LTIH increase in iNOS activity: prevented the LTIH increase in iNOS activity
iNOS; listed as Apocynin
  LTIH increase in iNOS activity: prevents the anticipated LTIH increase in iNOS activity
iNOS; sham LTIH
  baseline (sham LTIH) iNOS activity, relative to saline therapy: no effect
TNF-α mRNA; apocynin throughout LTIH
  LTIH increase in TNF-α gene expression (vs sham LTIH): completely prevented the increases in TNF-α gene expression
  TNF-α response as % of the saline LTIH response: 7%
TNF-α mRNA; apocynin vs DMSO vehicle during LTIH
  LTIH TNF-α response, Apo vs. DMSO, % lower: 73%
COX-2 mRNA
  COX-2 gene expression, reduction relative to sham LTIH: 65%
  LTIH COX-2 response: completely blocked the LTIH COX-2 response
WT mice exposed to LTIH; apocynin 3 mg/kg/day by osmotic pump throughout 8 wks LTIH, relative to saline and DMSO vehicle
  NREMS time: reduced NREMS time
WT mice exposed to LTIH; apocynin 3 mg/kg/day by osmotic pump throughout 8 wks LTIH, relative to saline and DMSO vehicle, 2 wk into recovery
  wake time/24 hr: increased wake times; also recorded: prevented LTIH-induced impaired wakefulness and hypersomnolence
WT mice exposed to LTIH; [1]
  sleep latency vs WT mice without intervention or sham LTIH: not significantly different
  sleep latency: significantly higher than LTIH DMSO vehicle-treated mice
WT mice exposed to LTIH; apocynin 3 mg/kg/day throughout LTIH, listed as Apocynin
  sleep latency: prevented LTIH reduced sleep latency
iNOS mRNA
  reduction in iNOS mRNA: 94%
